Experimental data as given in publication PMC9851200, “Multiparameter phenotypic screening for endogenous TFEB and TFE3 translocation identifies novel chemical series modulating lysosome function” (Autophagy, 2022).

Columns and labels:
endogenous TFEB = assay: TFEB nuclear translocation, immunocytochemistry high-content imaging; type: cell-based; details: PKIS2 primary screening
endogenous TFE3 = assay: TFE3 nuclear translocation, immunocytochemistry high-content imaging; type: cell-based; details: PKIS2 primary screening
SH-SY5Y cells [1] = details: PKIS2 primary screening; for DQ Intensity: DQ Red BSA intensity; for DQ Spot: DQ Red BSA spot count
Text: The PKIS2 Library was supplied by The Structural Genomics Consortium at the University of North Carolina at Chapel Hill.

SH-SY5Y cells [2] = assay: AK (adenylate kinase) release ToxiLight cytotoxicity assay; details: PKIS2 primary screening; note: reference of the scale not given here
SH-SY5Y cells [3] = assay: Nuclear count from microscopy images (cellular growth and toxicity); details: PKIS2 primary screening; note: reference of the scale not given here
Throughout, for DQ Intensity: reference of the scale not given here.
Throughout, for DQ Spot: reference of the scale not given here.

Row | Structure (SMILES) | TFEB % (endogenous TFEB) [%] | TFE3 % (endogenous TFE3) [%] | DQ Intensity (SH-SY5Y cells [1]) | DQ Spot (SH-SY5Y cells [1]) | AK (SH-SY5Y cells [2]) | Nuclear Count (SH-SY5Y cells [3])
1 | C[C@@H]1CC[C@@H](C(=O)Nc2ccccc2)CN1c1cc(-c2ccc3c(N)n[nH]c3c2)nc(N)n1 [GSK2286062] | 4.27 | 8.18 | 74.11 | 77.23 | 87.26 | 138.15
2 | CC(C)(C)OC(=O)NC1CCCN(c2cc(-c3ccc4c(N)n[nH]c4c3)nc(N)n2)C1 (stereo not drawn) [GSK2286096] | 2.89 | 7.82 | 137.35 | 108.17 | 116.95 | 128.62
3 | Nc1nc(-c2ccc3c(N)n[nH]c3c2)cc(N2CCCC(NC(=O)c3ccccc3)C2)n1 (stereo not drawn) [GSK2286775] | 4.25 | 13.75 | 67.10 | 83.48 | 119.49 | 104.24
4 | Nc1nc(-c2ccc3c(N)n[nH]c3c2)cc(N2CCC[C@@H](C(=O)Nc3ccccc3)C2)n1 [GSK2288359] | 6.39 | 14.08 | 83.69 | 103.68 | 96.03 | 88.88
5 | C[C@@H]1CC[C@H](C(=O)NC2CCCCC2)CN1c1cc(-c2ccc3c(N)n[nH]c3c2)nc(N)n1 [GSK2291363] | 3.73 | 16.02 | 117.06 | 112.54 | 87.12 | 117.58
6 | CNc1nc(-c2ccc3c(N)n[nH]c3c2)cc(N2C[C@@H](C(=O)Nc3ccccc3)CC[C@H]2C)n1 [GSK2298859] | 6.90 | 12.86 | 117.75 | 109.70 | 105.92 | 105.37
7 | CNc1nc(-c2ccc3c(N)n[nH]c3c2)cc(N2C[C@@H](C(=O)NC3CCCCC3)OC[C@H]2C)n1 [GSK2375584] | 4.51 | 6.46 | 111.29 | 104.60 | 76.99 | 127.70
8 | CC[C@@H]1CO[C@H](C(=O)Nc2ccccc2)CN1c1cc(-c2ccc3c(N)n[nH]c3c2)nc(NC)n1 [GSK2376236] | 3.52 | 8.81 | 102.90 | 87.99 | 114.69 | 121.19
9 | Cc1cc(-c2ccc3c(c2)CC[C@@H](N[C@@H](C)c2ccccc2)C3)cnc1N [GW412617] | 15.77 | 41.99 | 86.08 | 45.16 | 35.11 | 101.83
10 | Cc1cc(NCC(c2ccccc2)c2ccccc2)nc(NCc2ccc(C(F)(F)F)cc2)n1 [GW497681] | 10.26 | 31.99 | 118.39 | 90.21 | 143.14 | 83.96
11 | Cc1ccc(Nc2ccnc(Nc3ccc4c(c3)CS(=O)(=O)C4)n2)cc1O [GW579362] | 7.59 | 18.94 | 160.36 | 117.73 | 117.18 | 72.17
12 | Cc1ccc(Nc2ccnc(Nc3ccc(C)c(F)c3)n2)cc1O [GW582868] | 8.86 | 12.77 | 80.99 | 94.80 | 95.37 | 87.67
13 | CCS(=O)(=O)c1ccc(OC)c(Nc2ncc(-c3ccc(F)cc3)o2)c1 [GW591947] | 4.85 | 8.80 | 82.17 | 99.73 | 64.95 | 114.66
14 | CC(C)S(=O)(=O)N1CCN(Cc2ccc3c(c2)nc(NC(=O)c2ccsc2)n3C[C@H](O)c2ccccc2)CC1 [GW635815] | 6.81 | 6.25 | 100.23 | 98.01 | 78.91 | 125.41
15 | N#CCc1ccc(Nc2nccc(Nc3ccc(Oc4ccccc4)cc3)n2)cc1 [GW639905] | 8.66 | 15.01 | 108.02 | 113.65 | 115.45 | 107.11
16 | COC(=O)Nc1nc2ccc(Oc3ccc(NC(=O)Nc4cc(C(F)(F)F)ccc4F)cc3)cc2[nH]1 [GW654607] | 5.38 | 33.87 | 53.63 | 73.16 | 90.67 | 81.29
17 | NC(=O)c1cccc(Nc2nccc(Nc3ccc(Oc4cccc(Cl)c4)c(Cl)c3)n2)c1 [GW659008] | 11.92 | 11.36 | 100.37 | 103.30 | 92.69 | 86.88
18 | NC(=O)c1cccc(Nc2nccc(Nc3ccc(Oc4c(Cl)cccc4Cl)c(Cl)c3)n2)c1 [GW659009] | 6.80 | 20.40 | 60.26 | 79.24 | 74.50 | 101.88
